pIC50: −log10 of the molar value.

As usually defined, the pIC50 is the IC50 on a negative log10 scale, so that one unit is a factor of ten.

This test deals with PD-L1 (Homo sapiens (Human), UniProt Q9NZQ7). Nature of the test: PD-1/PD-L1 homogeneous time-resolved fluorescence (HTRF) binding assay. Particulars: Cisbio PD1/PD-L1 binding assay kit. An excerpt: PD-1/PD-L1 homogeneous time-resolved fluorescence (HTRF) detection technology was used to detect the binding ability of the compound to PD-L1.
Chain of PD-L1 (Q9NZQ7 19-238): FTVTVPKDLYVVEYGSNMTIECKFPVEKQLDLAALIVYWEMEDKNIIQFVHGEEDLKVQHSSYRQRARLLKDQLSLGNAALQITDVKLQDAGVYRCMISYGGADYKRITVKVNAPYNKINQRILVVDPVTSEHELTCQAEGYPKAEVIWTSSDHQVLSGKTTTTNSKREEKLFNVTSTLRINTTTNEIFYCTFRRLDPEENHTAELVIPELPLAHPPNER
PD1/PD-L1 binding assay kit (Cisbio, Cat #63ADK000CPDEC) was used, which includes two proteins, Tag 1-PD-L1 and Tag 2-PD-1, and two antibodies, Anti-Tag1-Eu^3+ and Anti-Tag2-XL 665. Assay principle: Anti-tag1-Eu^3+ is the HTRF donor, and Anti-Tag2-XL 665 is the HTRF acceptor. When Tag 1-PD-L1 and Tag 2-PD-1 interact, the added HTRF donor and the acceptor are close to each other. After the donor receives the excitation energy, it transfers part of the energy to the acceptor, thus producing 665 nm emission signal. When the compound is added to block the PD1/PD-L1 interaction, only 620 nm emission light was detected. The inhibitory effect of the compound was determined by analyzing the ratio of 665 nm/620 nm. Tag 1-PD-L1 was diluted with Diluent buffer (cat #62DLBDDF) to a working concentration of 10 nM, Tag 2-PD-1 was diluted with Diluent buffer to a working concentration of 500 nM, and Anti-Tag1-Eu^3+ was diluted with detection buffer (cat #62DB1FDG) by 1:100, Anti-Tag2-XL 665 was diluted with detection buffer by 1:20, and the test compound was diluted with Diluent buffer to a final concentration of 2×. In a 384-well plate, 2 μL of compound was added to each well, and then 4 μL of Tag 1-PD-L1, 4 μL of Tag 2-PD-1 were added and incubated at room temperature for 15 minutes. 5 μL Anti-Tag1-Eu^3+ and 5 μL Anti-Tag2-XL 665 were added and incubated overnight at room temperature, and detected with BioTek Synergy™ Neo2 Multifunctional Microplate Reader to obtain the ratio of 665 nm/620 nm. The IC50 curve was fitted by GraphPad Prism 5.02.
With `CC(=O)NCCNCc1cc2nc(OCc3cccc(-c4cccc(COc5ccc6[nH]c(CNCCNC(C)=O)cc6n5)c4C)c3C)ccc2[nH]1` [Compound 34], the negative logarithm of the IC50 (pIC50) is 7.00 to 8.00.
Turning to `COc1nc(OCc2cccc(-c3cccc(COc4ccc(CNCCC(N)=O)c(OC)n4)c3C)c2C)ccc1CNCCC(N)=O` [Compound 22], the negative-log IC50 (pIC50) is 7.00 to 8.00.
In the case of `COc1nc(OCc2cccc(-c3cccc(COc4ccc(CNCC(C)C(=O)O)c(OC)n4)c3C)c2C)ccc1CNCC(C)C(=O)O` (centres unmarked) [Compound 33], the negative logarithm of the IC50 (pIC50) was 7.00 to 8.00.
`COc1nc(OCc2cccc(-c3cccc(COc4ccc(CN5CCC(CC#N)CC5)c(OC)n4)c3C)c2C)ccc1CN1CCC(CC#N)CC1` [Compound 59]: the pIC50 is 7.00 to 8.00.
For `COC(=O)[C@@H]1C[C@H](O)CN1Cc1ccc(OCc2cccc(-c3cccc(COc4ccc(CN5C[C@@H](O)C[C@H]5C(=O)OC)c(OC)n4)c3C)c2C)nc1OC` [Compound 41], the negative-log IC50 (pIC50) was 7.00 to 8.00.
Then `COc1nc(OCc2cccc(-c3csc(COc4ccc(CNCCNC(C)=O)c(OC)n4)c3C)c2C)ccc1CNCCNC(C)=O` [Compound 36], with greater than 8.00.
As for `COc1nc(OCc2cccc(-c3cccc(COc4ccc(CN5C[C@@H](O)C[C@H]5C(=O)O)c(OC)n4)c3Cl)c2Cl)ccc1CN1C[C@@H](O)C[C@H]1C(=O)O` [Compound 46], the pIC50 was greater than 8.00.
Then `COc1nc(OCc2cccc(-c3cccc(CO)c3C)c2C)ccc1N` [Compound 8], with less than 6.00.
With `COc1nc(OCc2cccc(-c3cccc(COc4ccc(CN5C[C@@H](F)C[C@H]5C(=O)O)c(OC)n4)c3Cl)c2Cl)ccc1CN1C[C@@H](F)C[C@H]1C(=O)O` [Compound 79], the negative logarithm of the IC50 (pIC50) was greater than 8.00.
Take `COc1nc(OCc2cccc(-c3cccc(COc4ccc(CN5C[C@@H](F)C[C@H]5C(=O)O)c(OC)n4)c3Cl)c2Cl)ccc1CN1CCC(C(F)F)C1` (some centres unmarked) [Compound 81]: the pIC50 was greater than 8.00.
The figure for `COc1nc(OCc2cccc(-c3cccc(COc4ccc(CN5CC(O)C(CC#N)C5)c(OC)n4)c3C)c2C)ccc1CN1CC(O)C(CC#N)C1` (centres unmarked) [Compound 65] is greater than 8.00; for `COc1nc(OCc2cccc(-c3ccccc3)c2C)ccc1CN` [Compound 23] it is 6.00 to 7.00; for `COc1nc(OCc2cccc(-c3cccc(COc4ccc(CN5CCCC[C@@H]5C(=O)O)c(OC)n4)c3C)c2C)ccc1CN1CCCC[C@@H]1C(=O)O` [Compound 27] it is greater than 8.00.
With `COc1nc(OCc2cccc(-c3cccc(CO)c3C)c2C)ccc1CCN` [Compound 15, (3′-(((5-(2-aminoethyl)-6-methoxypyridin-2-yl)oxo)methyl)-2,2′-dimethyl-[1,1′-biphenyl]-3-yl) methanol], the pIC50 was 6.00 to 7.00.
Regarding `COc1nc(OCc2sc(C)c(COc3ccc(CNCCNC(C)=O)c(OC)n3)c2C)ccc1CNCCNC(C)=O` [Compound 40], the pIC50 was less than 6.00.
As for `COc1nc(OCc2cccc(-c3cccc(COc4ccc(CN5CC[C@H](NC(C)=O)C5)c(OC)n4)c3C)c2C)ccc1CN1CC[C@H](NC(C)=O)C1` [Compound 54], the negative-log IC50 (pIC50) was 7.00 to 8.00.
As to `COc1nc(OCc2cccc(-c3cccc(COc4ccc(CN5C[C@@H](O)C[C@H]5C(=O)O)c(OC)n4)c3Cl)c2Cl)ccc1CO` [Compound 57], the pIC50 was 7.00 to 8.00.
Then `COc1nc(OCc2cccc(-c3cccc(COc4ccc(CN5CCCC5CC(=O)O)c(OC)n4)c3C)c2C)ccc1CN1CCCC1CC(=O)O` (centres unmarked) [Compound 39], with 7.00 to 8.00; and `COc1nc(OCc2cccc(-c3cccc(COc4ccc(CN5CC(NC(C)=O)C5)c(OC)n4)c3Cl)c2Cl)ccc1CN1CC(NC(C)=O)C1` [Compound 74], with greater than 8.00.
With `COc1nc(OCc2cccc(-c3cccc(COc4ccc(CN5CC(O)(C(=O)O)C5)c(OC)n4)c3C)c2C)ccc1CN1CC(O)(C(=O)O)C1` [Compound 42], the negative logarithm of the IC50 (pIC50) was greater than 8.00.
Regarding `COc1nc(OCc2cccc(-c3cccc(COc4ccc(CNCCS(N)(=O)=O)c(OC)n4)c3Cl)c2Cl)ccc1CNCCS(N)(=O)=O` [Compound 78], the pIC50 was greater than 8.00.
As for `COc1nc(OCc2cccc(-c3cccc(COc4ccc(CN[C@H](C(=O)O)[C@@H](C)O)c(OC)n4)c3C)c2C)ccc1CN[C@H](C(=O)O)[C@@H](C)O` [Compound 51], the pIC50 was greater than 8.00.
Turning to `COc1nc(OCc2cccc(COc3ccc(CNCCNC(C)=O)c(OC)n3)n2)ccc1CNCCNC(C)=O` [Compound 18, N,N-((((((pyridine-2,6-diyl-bis (methylene))bis (oxo))bis (2-methoxypyridine-6,3-diyl))bis (methylene))bis (azetanediyl))bis (ethane-2,1-diyl)) diacetamide], the negative logarithm of the IC50 (pIC50) is less than 6.00.
Then `COc1nc(OCc2cccc(-c3cccc(COc4ccc(CNC5(C(=O)O)CC5)c(OC)n4)c3C)c2C)ccc1CNC1(C(=O)O)CC1` [Compound 37], with greater than 8.00.
In the case of `COc1nc(OCc2cccc(-c3cccc(COc4ccc(CN(CCO)CCO)c(OC)n4)c3Cl)c2Cl)ccc1CN(CCO)CCO` [Compound 72], the pIC50 is greater than 8.00.
In the case of `COc1nc(OCc2cccc(-c3cccc(COc4ccc(CNCC(C)(C)O)c(OC)n4)c3C)c2C)ccc1CNCC(C)(C)O` [Compound 20], the negative logarithm of the IC50 (pIC50) is 7.00 to 8.00.
As for `Cc1c(COc2ccc3[nH]c(CO)cc3n2)cccc1-c1cccc(COc2ccc3[nH]c(CO)cc3n2)c1C` [Compound 32], the pIC50 was less than 6.00.
The figure for `CC(=O)NCCNCc1cc(Cl)c2nc(-c3cccc(-c4cccc(-c5nc6c(Cl)cc(CNCCNC(C)=O)cn6n5)c4C)c3C)nn2c1` [Compound 45] is greater than 8.00; for `COc1nc(OCc2cccc(-c3cccc(COc4ccc(CNC(CO)CO)c(OC)n4)c3Cl)c2Cl)ccc1CNC(CO)CO` [Compound 68] it is greater than 8.00.
Regarding `COc1nc(OCc2cccc(-c3cccc(COc4ccc(CN5CC[C@@H](NC(C)=O)C5)c(OC)n4)c3C)c2C)ccc1CN1CC[C@@H](NC(C)=O)C1` [Compound 52], the negative-log IC50 (pIC50) was 7.00 to 8.00.
For the compound `COc1nc(OCc2cccc(-c3cccc(COc4ccc(CN5C[C@@H](O)C[C@H]5C(=O)O)c(OC)n4)c3C#N)c2C)ccc1CN1C[C@@H](O)C[C@H]1C(=O)O` [Compound 56], the pIC50 is greater than 8.00.
For the compound `COc1nc(OCc2cccc(-n3c(C)nc(COc4ccc(CNCCNC(C)=O)c(OC)n4)c3C)c2C)ccc1CNCCNC(C)=O` [Compound 44], the pIC50 was less than 6.00.
Turning to `COc1nc(OCc2cccc(-c3cccc(COc4ccc(CN5CC[C@H](O)C5)c(OC)n4)c3Cl)c2Cl)ccc1CN1CC[C@H](O)C1` [Compound 62], the pIC50 was greater than 8.00.
`COc1nc(OCc2cccc(-c3cccc(COc4ccc(CN5C[C@H](O)[C@@H](O)C5)c(OC)n4)c3Cl)c2Cl)ccc1CN1C[C@H](O)[C@@H](O)C1` [Compound 71]: the negative logarithm of the IC50 (pIC50) is greater than 8.00.
With `CNC(=O)CNCc1ccc(OCc2cccc(-c3cccc(COc4ccc(CNCC(=O)NC)c(OC)n4)c3Cl)c2Cl)nc1OC` [Compound 77], the pIC50 was greater than 8.00.
Then `COc1nc(OCc2cccc(-c3cccc(COc4ccc(CN5C[C@@H](O)C[C@H]5C(=O)O)c(OC)n4)c3F)c2C)ccc1CN1C[C@@H](O)C[C@H]1C(=O)O` [Compound 66], with greater than 8.00.
Turning to `COc1nc(OCc2cccc(-c3cccc(COc4ccc(CN)c(OC)n4)c3C)c2C)ccc1CN` [Compound 6, ((((2,2′-dimethyl-[1,1′-biphenyl)-3,3′-diyl)bis (methylene))bis (oxo))bis (2-methoxypyridine-6,3-diyl)) dimethylamine], the pIC50 is 7.00 to 8.00.
As for `COc1nc(OCc2cccc(-c3cccc(COc4ccc(CN5CC(CC#N)C5)c(OC)n4)c3C)c2C)ccc1CN1CC(CC#N)C1` [Compound 61], the negative logarithm of the IC50 (pIC50) is 7.00 to 8.00.
As to `COc1nc(OCc2cccc(-c3cccc(COc4ccc(CN5C[C@@H](O)C[C@H]5C(=O)O)c(OC)n4)c3Cl)c2Cl)ccc1CN1CC[C@H](O)C1` [Compound 58], the pIC50 was greater than 8.00.
Consider `COc1cc(N)cc(OCc2cccc(-c3cccc(CO)c3C)c2C)n1` [Compound 12, (3′-(((4-amino-6-methoxypyridin-2-yl)oxo)methyl)-2,2′-dimethyl-[1,1′-biphenyl]-3-yl)methanol], for which the negative-log IC50 (pIC50) is less than 6.00.
Consider `COc1cc(OCc2cccc(-c3cccc(CO)c3C)c2C)cc(OC)c1CNCCNC(C)=O` [Compound 10, N-(2-((4-((3′-(hydroxymethyl)-2,2′-dimethyl-[1,1′-biphenyl]-3-yl)methoxy)-2,6-dimethoxybenzyl)amino)ethyl) acetamide], for which the negative logarithm of the IC50 (pIC50) was less than 6.00.
Take `Cc1c(CO)cccc1-c1cccc(COc2cccc(CN)n2)c1C` [Compound 7, (3′-(((6-(aminomethyl)pyridin-2-yl)oxo)methyl)-2,2′-dimethyl-[1,1′-biphenyl]-3-yl)methanol]: the pIC50 is less than 6.00.
Then `Cc1c(CO)cccc1-c1cccc(COc2cccc(N)n2)c1C` [Compound 13, (3′(((6-aminopyridin-2-yl)oxo)methyl)-2,2′-dimethyl-[1,1′-biphenyl]-3-yl) methanol], with less than 6.00; and `COC(=O)[C@@H]1C[C@H](O)CN1Cc1ccc(OCc2cccc(-c3cccc(COc4ccc(CN5C[C@@H](O)C[C@H]5C(=O)OC)c(OC)n4)c3Cl)c2Cl)nc1OC` [Compound 48], with 6.00 to 7.00.
